Patent publication US20190233884A1 (University of Southern California, priority 2016, published 2019)

Tested on: patients with refractory metastatic colorectal cancer (mCRC)
Assay: PFS, OS and disease control in the testing (validation) cohort of refractory mCRC patients receiving TAS-102 (n=129, Italy), by baseline characteristics, SNP genotype and toxicity
Assay type: in vivo, human
Experimental: All patients underwent the treatment in salvage-line setting. […]
(§1) Genomic DNA was extracted from peripheral whole blood in patients of all cohorts using the QIAmp Kit (Qiagen, Valencia, Calif., USA) according to the manufacturer's protocol (www.qiagen.com). The candidate SNPs were genotyped using PCR-based direct DNA sequence analysis by ABI 3100A Capillary Genetic Analyzer and Sequencing Scanner v1.0 (Applied Biosystems). Amplification of extracted DNA was carried out using both forward and reverse primers for each gene polymorphism as shown in Table 1. […] The investigators analyzing SNPs were blinded to the clinical data of the study patients.
The primary endpoint in this study was progression-free survival (PFS), and the secondary endpoints were overall survival (OS) and disease control rate (DCR). PFS was calculated from the date of starting treatment to the first observation of disease progression or death from any cause. If a patient had no disease progression or death, PFS was censored at the date of last follow up. OS was calculated from the date of starting treatment until the date of death from any cause or the date of the last follow-up, at which point OS was censored. The disease control rate (DCR) was defined as the proportion of patients who achieved a stable disease (SD) or […] according to RECISTv1.1. Chi-square test was used to examine the difference in baseline patient characteristics among the three cohorts. Allelic distribution of all SNPs by ethnicity for deviation from Hardy-Weinberg equilibrium and the allelic frequencies of SNPs were tested using the Chi-square tests with one degree of freedom. The associations between candidate SNPs and disease control, and toxicities were examined using contingency tables and Fisher's exact test. The associations of SNPs with PFS and OS were analysed using Kaplan-Meier curves and the log-rank test. Because the true mode of inheritance of candidate SNPs was not established yet, a codominant or dominant genetic model if appropriate was considered.
All patients underwent the treatment in salvage-line setting. […] In all patients, adverse events were graded according to the Common Terminology Criteria for Adverse Events, version 4.0. […]
as §1, with “tested” for “genotyped”, “Biosystems).” for “Biosystems). Amplification of extracted DNA was carried out using both forward and reverse primers for each gene polymorphism as shown in Table 1.”, “data.” for “data of the study patients.”
The primary endpoint in this study was progression-free survival (PFS), and the secondary endpoints were overall survival (OS) and disease control rate (DCR).

[1] = validation cohort, Time to metastasis Synchronous
[2] = validation cohort, Tumor site Left
[3] = validation cohort, Tumor site Left vs Right (Ref.), univariate
[4] = validation cohort, Tumor site Right
[5] = validation cohort, XRCC3 rs861539 A/A
[6] = validation cohort, XRCC3 rs861539 A/A vs Any G (Ref.), multivariable
[7] = validation cohort, XRCC3 rs861539 A/A vs Any G (Ref.), univariate
[8] = validation cohort, XRCC3 rs861539 A/A vs G/G (Ref.), multivariable
[9] = validation cohort, XRCC3 rs861539 A/A vs G/G (Ref.), univariate
[10] = validation cohort, XRCC3 rs861539 Any A
[11] = validation cohort, XRCC3 rs861539 Any A vs G/G (Ref.), multivariable
[12] = validation cohort, XRCC3 rs861539 Any A vs G/G (Ref.), univariate
[13] = validation cohort, XRCC3 rs861539 Any G
[14] = validation cohort, XRCC3 rs861539 G/A
[15] = validation cohort, XRCC3 rs861539 G/A vs G/G (Ref.), multivariable
[16] = validation cohort, XRCC3 rs861539 G/A vs G/G (Ref.), univariate
[17] = validation cohort, XRCC3 rs861539 G/G
[18] = validation cohort, ATM rs609429 any G allele
[19] = validation cohort, ATM rs609429 any G vs C/C, univariate
[20] = whole testing (validation) cohort

## Trifluridine/tipiracil [TAS-102]
Validation cohort, Time to metastasis Metachronous vs Synchronous (Ref.), univariate
  HR PFS: 0.75
[1]
  Median OS: 5.2 months
  Median PFS: 1.9 months
[2]
  Median OS: 9.0 months
  Median PFS: 2.0 months
[3]
  HR OS: 0.78
  HR PFS: 1.07
[4]
  Median OS: 5.1 months
  Median PFS: 1.9 months
[5]
  Disease Control CR/PR/SD, patients n (%): 3 (12%)
  Median OS (95% CI): 4.2 (3.6, 8.8+) months
  Median PFS (95% CI): 1.9 (1.8, 2.0) months
  PD, patients n (%): 22 (88%)
[6]
  HR OS (95% CI): 1.05 (0.56, 1.97)
  HR PFS (95% CI): 1.30 (0.81, 2.09)
[7]
  HR OS (95% CI): 1.29 (0.70, 2.39)
  HR PFS (95% CI): 1.37 (0.86, 2.18)
[8]
  HR OS (95% CI): 0.93 (0.46, 1.88)
  HR PFS (95% CI): 1.26 (0.74, 2.14)
[9]
  HR OS (95% CI): 1.13 (0.57, 2.22)
  HR PFS (95% CI): 1.34 (0.80, 2.25)
[10]
  Disease Control CR/PR/SD, patients n (%): 19 (26%)
  Median OS (95% CI): 5.8 (4.1, 9.0+) months
  Median PFS (95% CI): 2.0 (1.9, 2.1) months
  PD, patients n (%): 55 (74%)
[11]
  HR OS (95% CI): 0.84 (0.47, 1.49)
  HR PFS (95% CI): 1.05 (0.69, 1.60)
[12]
  HR OS (95% CI): 0.88 (0.51, 1.54)
  HR PFS (95% CI): 1.07 (0.72, 1.61)
[13]
  Disease Control CR/PR/SD, patients n (%): 32 (32%)
  Median OS (95% CI): 5.8 (4.7, 9.0+) months
  Median PFS (95% CI): 2.0 (1.9, 2.3) months
  PD, patients n (%): 67 (68%)
[14]
  Disease Control CR/PR/SD, patients n (%): 16 (33%)
  Median OS (95% CI): 9.0 (4.6, 9.0+) months
  Median PFS (95% CI): 2.0 (1.9, 2.3) months
  OS: 9.0 months
  PD, patients n (%): 33 (67%)
[15]
  HR OS (95% CI): 0.79 (0.41, 1.51)
  HR PFS (95% CI): 0.95 (0.59, 1.51)
[16]
  HR OS (95% CI): 0.75 (0.40, 1.43)
  HR PFS (95% CI): 0.96 (0.62, 1.50)
[17]
  Disease Control CR/PR/SD, patients n (%): 16 (32%)
  Median OS (95% CI): 5.5 (3.6, 8.7+) months
  Median PFS (95% CI): 2.1 (1.7, 2.5) months
  PD, patients n (%): 34 (68%)
[18]
  OS: not reached
  PFS: 2.0 months
[19]
  HR for OS: 0.73
  HR for PFS: 0.78
Validation cohort, XRCC3 rs861539 C/C variant (so in the source)
  OS: 5.5 months
Validation cohort, XRCC3 rs861539 G/A vs C/C (so in the source)
  HR for OS: 0.75
[20]
  Median OS: 5.7 months
  Median PFS: 2.0 months
